Laboratory results taken from ChEMBL document CHEMBL1125208, “Applications of neural networks in quantitative structure-activity relationships of dihydrofolate reductase inhibitors” (J Med Chem, 1991).

Biological target: T1, Dihydrofolate reductase (Mus musculus) (UniProt P00375)
T1 sequence (whole entry): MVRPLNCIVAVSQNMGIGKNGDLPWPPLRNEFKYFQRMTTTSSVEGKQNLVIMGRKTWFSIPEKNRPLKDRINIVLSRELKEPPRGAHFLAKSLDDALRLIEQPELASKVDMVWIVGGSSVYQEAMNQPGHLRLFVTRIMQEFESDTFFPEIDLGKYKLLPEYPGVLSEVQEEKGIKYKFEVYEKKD
Assay: Inhibition of dihydrofolate reductase from L1210 leukemia tumors

With `CC1(C)N=C(N)N=C(N)N1c1ccc(OCc2ccc(C(=O)Nc3cccc(S(=O)(=O)F)c3)cc2)c(Cl)c1` the Log 1/C was 7.41.
Compound `CC1(C)N=C(N)N=C(N)N1c1ccc(OCCCCCOc2ccc(S(=O)(=O)F)cc2)c(Cl)c1` has a Log 1/C of 7.57.
Work on `CC1(C)N=C(N)N=C(N)N1c1ccc(OCc2cccc(S(=O)(=O)F)c2Cl)c(Cl)c1` yielded a Log 1/C of 7.49.
`CC1(C)N=C(N)N=C(N)N1c1ccc(OCc2ccccc2C(=O)Nc2ccc(S(=O)(=O)F)cc2)c(Cl)c1` gave a Log 1/C of 7.24.
Work on `CC1(C)N=C(N)N=C(N)N1c1ccc(CCc2ccc(S(=O)(=O)F)c(Cl)c2)c(Cl)c1` yielded a Log 1/C of 7.85.
In the case of `CC1(C)N=C(N)N=C(N)N1c1ccc(SCC(=O)Nc2cccc(S(=O)(=O)F)c2)c(Cl)c1`, the Log 1/C is reported as 7.66.
For `CC1(C)N=C(N)N=C(N)N1c1ccc(Cl)c(OCCCOc2ccc(S(=O)(=O)F)cc2)c1`, the Log 1/C was 7.51.
Compound `CC(Oc1ccc(N2C(N)=NC(N)=NC2(C)C)cc1Cl)C(=O)Nc1ccc(S(=O)(=O)F)cc1` (configuration not stated) has a Log 1/C of 7.13.
With `Cc1cc(S(=O)(=O)F)ccc1COc1ccc(N2C(N)=NC(N)=NC2(C)C)cc1Cl` the Log 1/C was 7.38.
Work on `CC1(C)N=C(N)N=C(N)N1c1cccc(CCCCc2ccc(S(=O)(=O)F)cc2)c1` yielded a Log 1/C of 8.1.
`CC1(C)N=C(N)N=C(N)N1c1ccc(OCc2cccc(S(=O)(=O)F)c2)c(Cl)c1` showed a Log 1/C of 7.72.
With `CCN(CC)C(=O)NCc1cccc(N2C(N)=NC(N)=NC2(C)C)c1` the Log 1/C was 6.11.
In the case of `CC1(C)N=C(N)N=C(N)N1c1ccc(OCC(=O)Nc2ccc(S(=O)(=O)F)cc2)c(Cl)c1`, the Log 1/C is reported as 7.43.
`CC1(C)N=C(N)N=C(N)N1c1cccc(CCCCc2ccc(S(=O)(=O)F)c(Cl)c2)c1` was tested, and the Log 1/C was 7.7.
With `CC1(C)N=C(N)N=C(N)N1c1ccc(OCc2ccc(S(=O)(=O)F)cc2Cl)c(Cl)c1` the Log 1/C was 7.44.
For `CC1(C)N=C(N)N=C(N)N1c1ccc(OCCCCNC(=O)c2ccc(S(=O)(=O)F)cc2)c(Cl)c1`, the Log 1/C was 7.66.
With `CC1(C)N=C(N)N=C(N)N1c1ccc(CCCCCCc2ccc(S(=O)(=O)F)cc2)cc1` the Log 1/C was 7.12.
With `CC1(C)N=C(N)N=C(N)N1c1ccc(OCCCNC(=O)Nc2cccc(S(=O)(=O)F)c2)cc1` the Log 1/C was 7.32.
With `CC1(C)N=C(N)N=C(N)N1c1ccc(CCCCc2cccc(Cl)c2S(=O)(=O)F)c(Cl)c1` the Log 1/C was 8.2.
With `CC1(C)N=C(N)N=C(N)N1c1cccc(CCCCc2cc(Cl)ccc2S(=O)(=O)F)c1` the Log 1/C was 7.96.
In the case of `CC1(C)N=C(N)N=C(N)N1c1ccc(Cl)c(OCCCCCOc2ccc(S(=O)(=O)F)cc2)c1`, the Log 1/C is reported as 6.72.
`CC1(C)N=C(N)N=C(N)N1c1ccc(CCC(=O)Nc2cccc(S(=O)(=O)F)c2)cc1` was tested, and the Log 1/C was 7.74.
`CC1(C)N=C(N)N=C(N)N1c1ccc(OCc2ccc(Cl)c(S(=O)(=O)F)c2)c(Cl)c1` gave a Log 1/C of 8.
`CC1(C)N=C(N)N=C(N)N1c1ccc(OCc2cccc(C(=O)Nc3cccc(S(=O)(=O)F)c3)c2)c(Cl)c1` was tested, and the Log 1/C was 7.24.
`CC1(C)N=C(N)N=C(N)N1c1ccc(OCc2ccc(S(=O)(=O)F)c(Cl)c2)c(Cl)c1` gave a Log 1/C of 7.43.
In the case of `CC1(C)N=C(N)N=C(N)N1c1ccc(OCCCCC(=O)Nc2ccc(S(=O)(=O)F)cc2)c(Cl)c1`, the Log 1/C is reported as 7.24.
In the case of `CC1(C)N=C(N)N=C(N)N1c1ccc(CNC(=O)Nc2ccc(S(=O)(=O)F)cc2)c(Cl)c1`, the Log 1/C is reported as 7.92.
Compound `CC1(C)N=C(N)N=C(N)N1c1ccc(Cl)c(OCCCCOc2ccc(S(=O)(=O)F)cc2)c1` has a Log 1/C of 7.17.
Work on `CC1(C)N=C(N)N=C(N)N1c1ccc(OCc2ccc(COc3ccc(S(=O)(=O)F)cc3)cc2)c(Cl)c1` yielded a Log 1/C of 6.82.
`CC1(C)N=C(N)N=C(N)N1c1ccc(CCCCc2ccc(Cl)c(S(=O)(=O)F)c2)c(Cl)c1` was tested, and the Log 1/C was 8.11.
With `CC1(C)N=C(N)N=C(N)N1c1cccc(CCc2ccc(S(=O)(=O)F)cc2)c1` the Log 1/C was 8.1.
With `CC1(C)N=C(N)N=C(N)N1c1ccc(OCc2cccc(C(=O)Nc3ccc(S(=O)(=O)F)cc3)c2)c(Cl)c1` the Log 1/C was 6.92.
`CC1(C)N=C(N)N=C(N)N1c1cccc(OCCOc2ccc(S(=O)(=O)F)cc2)c1` showed a Log 1/C of 7.82.
For `CC1(C)N=C(N)N=C(N)N1c1ccc(OCc2cccc(Cl)c2S(=O)(=O)F)c(Cl)c1`, the Log 1/C was 7.42.
For `Cc1cc(NC(=O)NCCCOc2ccc(N3C(N)=NC(N)=NC3(C)C)cc2Cl)ccc1S(=O)(=O)F`, the Log 1/C was 8.06.
Work on `CC1(C)N=C(N)N=C(N)N1c1ccc(OCCCNC(=O)Nc2cccc(S(=O)(=O)F)c2)c(Cl)c1` yielded a Log 1/C of 7.28.
`CC1(C)N=C(N)N=C(N)N1c1ccc(SCC(=O)Nc2ccc(S(=O)(=O)F)cc2)cc1` gave a Log 1/C of 7.52.
With `CC1(C)N=C(N)N=C(N)N1c1ccc(CCc2ccc(S(=O)(=O)F)cc2Cl)c(Cl)c1` the Log 1/C was 8.33.
With `CC1(C)N=C(N)N=C(N)N1c1cccc(CNC(=O)N2CCOCC2)c1` the Log 1/C was 6.43.
`CC1(C)N=C(N)N=C(N)N1c1ccc(CCCCc2ccc(S(=O)(=O)F)c(Cl)c2)c(Cl)c1` showed a Log 1/C of 7.7.
Work on `CC1(C)N=C(N)N=C(N)N1c1ccc(OCc2cc(Cl)ccc2S(=O)(=O)F)c(Cl)c1` yielded a Log 1/C of 7.27.
With `CC1(C)N=C(N)N=C(N)N1c1ccc(OCCCCCCOc2ccc(S(=O)(=O)F)cc2)c(Cl)c1` the Log 1/C was 7.46.
In the case of `CC1(C)N=C(N)N=C(N)N1c1cccc(CNC(=O)Nc2cccc([N+](=O)[O-])c2)c1`, the Log 1/C is reported as 8.1.
`CC1(C)N=C(N)N=C(N)N1c1cccc(CNC(=O)Nc2cccc(C#N)c2)c1` gave a Log 1/C of 8.19.
In the case of `CC1(C)N=C(N)N=C(N)N1c1ccc(OCCCNC(=O)Nc2ccc(S(=O)(=O)F)cc2)c(Cl)c1`, the Log 1/C is reported as 7.68.
In the case of `CC1(C)N=C(N)N=C(N)N1c1ccc(OCc2cc(S(=O)(=O)F)ccc2Cl)c(Cl)c1`, the Log 1/C is reported as 7.38.
`CN(C)C(=O)c1cccc(NC(=O)NCc2cccc(N3C(N)=NC(N)=NC3(C)C)c2)c1` was tested, and the Log 1/C was 7.77.
In the case of `CC1(C)N=C(N)N=C(N)N1c1ccc(CCCCc2ccc(S(=O)(=O)F)cc2)cc1`, the Log 1/C is reported as 7.7.
`CC1(C)N=C(N)N=C(N)N1c1ccc(Cl)c(CCc2ccc(S(=O)(=O)F)cc2)c1` was tested, and the Log 1/C was 5.82.
Compound `CN(C(=O)COc1ccc(N2C(N)=NC(N)=NC2(C)C)cc1Cl)c1ccc(S(=O)(=O)F)cc1` has a Log 1/C of 7.47.
`CC1(C)N=C(N)N=C(N)N1c1ccc(CCc2ccc(Cl)c(S(=O)(=O)F)c2)c(Cl)c1` gave a Log 1/C of 8.27.
`CC1(C)N=C(N)N=C(N)N1c1cccc(OCC(=O)Nc2ccc(S(=O)(=O)F)cc2)c1` was tested, and the Log 1/C was 6.92.
Work on `CC1(C)N=C(N)N=C(N)N1c1cccc(CCCCc2ccc(Cl)cc2Cl)c1` yielded a Log 1/C of 8.03.
Compound `CC1(C)N=C(N)N=C(N)N1c1ccc(OCCCNC(=O)c2ccc(S(=O)(=O)F)cc2)c(Cl)c1` has a Log 1/C of 7.34.
Compound `COc1cccc(NC(=O)NCc2cccc(N3C(N)=NC(N)=NC3(C)C)c2)c1` has a Log 1/C of 8.02.
Compound `CC1(C)N=C(N)N=C(N)N1c1ccc(CCCCc2ccc(Cl)cc2Cl)cc1` has a Log 1/C of 7.92.
`CC1(C)N=C(N)N=C(N)N1c1ccc(SCC(=O)Nc2ccc(S(=O)(=O)F)cc2)c(Cl)c1` was tested, and the Log 1/C was 7.42.
Compound `Cc1cc(NC(=O)NCCOc2ccc(N3C(N)=NC(N)=NC3(C)C)cc2Cl)ccc1S(=O)(=O)F` has a Log 1/C of 7.82.
`CC1(C)N=C(N)N=C(N)N1c1cccc(CCCCc2cccc(S(=O)(=O)F)c2)c1` gave a Log 1/C of 8.1.
With `CC1(C)N=C(N)N=C(N)N1c1ccc(Cl)c(CCCCc2ccc(S(=O)(=O)F)cc2)c1` the Log 1/C was 6.77.
`CC1(C)N=C(N)N=C(N)N1c1ccc(CCc2ccccc2)cc1` gave a Log 1/C of 7.89.
With `CC1(C)N=C(N)N=C(N)N1c1ccc(OCc2ccc(S(=O)(=O)F)cc2)c(Cl)c1` the Log 1/C was 7.58.
Work on `CC1(C)N=C(N)N=C(N)N1c1ccc(CCC(=O)Nc2ccc(S(=O)(=O)F)cc2)c(Cl)c1` yielded a Log 1/C of 7.62.
`CC1(C)N=C(N)N=C(N)N1c1ccc(CCCCc2cc(Cl)ccc2S(=O)(=O)F)c(Cl)c1` gave a Log 1/C of 7.06.
Work on `CC1(C)N=C(N)N=C(N)N1c1cccc(CCCCc2ccc(Cl)c(S(=O)(=O)F)c2)c1` yielded a Log 1/C of 8.37.
In the case of `CC1(C)N=C(N)N=C(N)N1c1ccc(OCCCC(=O)Nc2cccc(S(=O)(=O)F)c2)c(Cl)c1`, the Log 1/C is reported as 7.17.
`CC1(C)N=C(N)N=C(N)N1c1ccc(CCc2cccc(Cl)c2S(=O)(=O)F)c(Cl)c1` showed a Log 1/C of 8.3.
`CC1(C)N=C(N)N=C(N)N1c1ccc(OCCCC(=O)Nc2ccc(S(=O)(=O)F)cc2)c(Cl)c1` gave a Log 1/C of 7.15.
Compound `CC1(C)N=C(N)N=C(N)N1c1ccc(CCC(=O)Nc2ccc(S(=O)(=O)F)cc2)cc1` has a Log 1/C of 7.6.
`CC1(C)N=C(N)N=C(N)N1c1ccc(Cl)c(OCCOc2ccc(S(=O)(=O)F)cc2)c1` showed a Log 1/C of 7.27.
For `CC1(C)N=C(N)N=C(N)N1c1ccc(CC(C(=O)Nc2cccc(S(=O)(=O)F)c2)c2ccccc2)cc1` (configuration not stated), the Log 1/C was 6.89.
Compound `CC1(C)N=C(N)N=C(N)N1c1ccc(OCc2c(Cl)cccc2S(=O)(=O)F)c(Cl)c1` has a Log 1/C of 7.72.
In the case of `Cc1cc(NC(=O)NCc2ccc(N3C(N)=NC(N)=NC3(C)C)cc2)ccc1S(=O)(=O)F`, the Log 1/C is reported as 7.72.
For `CC1(C)N=C(N)N=C(N)N1c1ccc(CCCCc2ccccc2S(=O)(=O)F)c(Cl)c1`, the Log 1/C was 7.77.
Work on `CC1(C)N=C(N)N=C(N)N1c1ccc(OCc2ccccc2S(=O)(=O)F)c(Cl)c1` yielded a Log 1/C of 7.43.
In the case of `CC1(C)N=C(N)N=C(N)N1c1ccc(OCc2ccc(Cl)cc2S(=O)(=O)F)c(Cl)c1`, the Log 1/C is reported as 7.52.
`CC1(C)N=C(N)N=C(N)N1c1cccc(CNC(=O)Nc2cccc(Cl)c2)c1` was tested, and the Log 1/C was 8.05.
`CC1(C)N=C(N)N=C(N)N1c1cc(Cl)c(OCC(=O)Nc2ccc(S(=O)(=O)F)cc2)c(Cl)c1` showed a Log 1/C of 7.74.
Compound `CC1(C)N=C(N)N=C(N)N1c1ccc(CCCCc2ccc(S(=O)(=O)F)cc2Cl)cc1` has a Log 1/C of 7.96.
`CC1(C)N=C(N)N=C(N)N1c1cccc(OCCCOc2ccc(S(=O)(=O)F)cc2)c1` was tested, and the Log 1/C was 7.96.
Compound `CC1(C)N=C(N)N=C(N)N1c1ccc(OCc2ccc(C(=O)Nc3ccc(S(=O)(=O)F)cc3)cc2)c(Cl)c1` has a Log 1/C of 6.92.
For `CC1(C)N=C(N)N=C(N)N1c1ccc(OCCOCCOc2ccc(S(=O)(=O)F)cc2)c(Cl)c1`, the Log 1/C was 7.14.
Work on `CC1(C)N=C(N)N=C(N)N1c1ccc(CNC(=O)Nc2ccc(S(=O)(=O)F)cc2)cc1` yielded a Log 1/C of 7.35.
`CC1(C)N=C(N)N=C(N)N1c1ccc(OCCCCNC(=O)Nc2cccc(S(=O)(=O)F)c2)c(Cl)c1` was tested, and the Log 1/C was 7.7.
`CC1(C)N=C(N)N=C(N)N1c1ccc(OCCCCOc2ccc(S(=O)(=O)F)cc2)c(Cl)c1` was tested, and the Log 1/C was 7.57.
`CC1(C)N=C(N)N=C(N)N1c1ccc(CCCCc2ccccc2)c(Cl)c1` gave a Log 1/C of 7.92.
For `CC1(C)N=C(N)N=C(N)N1c1ccc(OCC(=O)Nc2cccc(S(=O)(=O)F)c2)c(Cl)c1`, the Log 1/C was 7.72.
